Activity calls are given as the source filed them. No cut-off for these calls is given here.
Tests used:
[1] = test system: Bacillus thuringiensis; assay: Antibacterial activity against Bacillus thuringiensis SCSIO BT01 assessed as growth inhibition by broth microdilution method; type: functional
[2] = test system: Staphylococcus aureus; assay: Antibacterial activity against Staphylococcus aureus ATCC 29213 assessed as growth inhibition by broth microdilution method; type: functional
[3] = test system: MCF7; assay: Cytotoxicity against human MCF7 cells by SRB assay; type: functional, cell-based
[4] = test system: SF-268; assay: Cytotoxicity against human SF268 cells by SRB assay; type: functional, cell-based
[5] = test system: Bacillus subtilis; assay: Antibacterial activity against Bacillus subtilis SCSIO BS01 assessed as growth inhibition by broth microdilution method; type: functional
[6] = test system: Radical scavenging activity; assay: Antioxidant activity of the compound assessed as DPPH radical scavenging activity after 30 mins by spectrophotometric analysis; type: functional
[7] = test system: Candida albicans; assay: Antifungal activity against Candida albicans ATCC 10231 assessed as growth inhibition by broth microdilution method; type: functional
[8] = test system: NCI-H460; assay: Cytotoxicity against human NCI-H460 cells by SRB assay; type: functional, cell-based
[9] = test system: Escherichia coli; assay: Antibacterial activity against Escherichia coli ATCC 25922 assessed as growth inhibition by broth microdilution method; type: functional
[10] = test system: HUVEC; assay: Antimigratory activity in HUVEC at 17.1 uM up to 72 hrs by scratch wound healing assay relative to DMSO-treated control; type: functional, cell-based; conditions: Homo sapiens
[11] = test system: HUVEC; assay: Antimigratory activity in HUVEC at 11.8 uM up to 72 hrs by scratch wound healing assay relative to DMSO-treated control; type: functional, cell-based; conditions: Homo sapiens

Structure (SMILES)	MIC [1] [µg/mL]	MIC [2] [µg/mL]	IC50 [3] [µM]	IC50 [4] [µM]	MIC [5] [µg/mL]	Activity [6]	MIC [7] [µg/mL]	IC50 [8] [µM]	MIC [9] [µg/mL]	Activity [10]	Activity [11]
C/C=C/C=C/C[C@@H]1C[C@@H]2/C=C/C(C)=C/[C@H]3C=C[C@@H](O)[C@@H](O)[C@@H]3/C(C)=C/C=C/[C@H]2C(=O)N1	> 128	> 128	> 100	> 100	> 128	inactive	> 128	> 100	> 128		
C/C=C/C=C/C[C@@H]1C[C@H](O)[C@H]2[C@@H]3/C(C)=C/[C@H]4C=C[C@@H](O)[C@@H](O)[C@@H]4/C(C)=C/C=C\[C@@H]3C(=O)N12	> 128	> 128	> 100	> 100	> 128	inactive	> 128	> 100	> 128	inactive	
C/C=C/C=C/C[C@@H]1C/C=C/C=C(C)/C=C/C=C\[C@@H](O)[C@@H](O)/C=C(C)/C=C/C=C/C(=O)N1	> 128	> 128	> 100	> 100	> 128	inactive	> 128	> 100	> 128		inactive
C/C=C/C=C/C[C@@H]1C/C=C/C=C(C)/C=C/C=C\[C@@H](OC(C)=O)[C@@H](OC(C)=O)/C=C(C)/C=C/C=C/C(=O)N1	> 128	> 128	15.4	23.3	> 128		> 128	56.4	> 128		
